≈ marks a conversion by molar mass, not a printed value.
What was measured:
[1] = tested on: Cyprinus carpio; conditions: acute; duration: 96 hours; mortality
[2] = tested on: Colinus virginianus; conditions: acute, oral, mortality
[3] = tested on: Pimephales promelas; conditions: chronic/long-term; duration: 32 days; growth
[4] = tested on: Apis mellifera; conditions: acute, mortality
[5] = tested on: Anas platyrhynchos; conditions: reproductive
[6] = tested on: Gammaridae; conditions: chronic/long-term; duration: 28 days
[7] = tested on: Neomysis kadiakensis
[8] = tested on: Rattus norvegicus
[9] = tested on: Pontoscolex corethrurus

Cn1cc(C(=O)Nc2cccc3c2[C@@H]2CC[C@H]3C2=C(Cl)Cl)c(C(F)F)n1 [Benzovindiflupyr]
LC50 [1]: 0.0035 µg/mL (≈ 0.00879 µM) | LC50 ([2]; diet): > 1170 mg/kg-day | LD50 [2]: 1320 mg/kg | NOEC [3]: 0.00095 mg/L | LD50 ([4]; dermal): > 100 µg/piece | LD50 ([4]; oral, unspecified): > 109 µg/piece | NOEC [5]: 25 mg/kg-day | NOEC [6]: 4.1 mg/kg | LC50 ([7]; acute, duration: 96 hours, mortality): 0.056 µg/mL (≈ 0.141 µM) | NOEC ([7]; chronic/long-term, duration: 28 days, reproduction): 0.0074 mg/L | LD50 ([8]; acute, mortality): 55 mg/kg | NOAEL ([8]; acute, neurology): 10 mg/kg-day | NOAEL ([8]; chronic): 6.8 mg/kg-day | NOAEL ([8]; chronic, duration: 2 years, histopathology: nonneoplastic): 4.88 mg/kg-day | NOAEL ([8]; reproduction developmental, M/F, reproduction): 6.8 mg/kg-day | NOAEL ([8]; subchronic, duration: 90 days, oral, organ weight): 7.6 mg/kg-day | LC50 ([9]; acute, duration: 14 days, mortality): 406 mg/kg | NOEC ([9]; chronic/long-term, duration: 8 weeks): 7.81 mg/kg

Reference: EPA's ToxValDB 9.5 (doi:10.2903/j.efsa.2015.4043)
